Laboratory results published in patent US7465751B2 (priority 2002, dated 2008).

Columns and labels:
[1] = target: M2 muscarinic receptor (Rattus norvegicus, UniProt P10980); type: binding
[2] = target: M3 muscarinic receptor (Rattus norvegicus, UniProt P08483); type: binding
Sequence of M3 muscarinic receptor (P08483 whole entry): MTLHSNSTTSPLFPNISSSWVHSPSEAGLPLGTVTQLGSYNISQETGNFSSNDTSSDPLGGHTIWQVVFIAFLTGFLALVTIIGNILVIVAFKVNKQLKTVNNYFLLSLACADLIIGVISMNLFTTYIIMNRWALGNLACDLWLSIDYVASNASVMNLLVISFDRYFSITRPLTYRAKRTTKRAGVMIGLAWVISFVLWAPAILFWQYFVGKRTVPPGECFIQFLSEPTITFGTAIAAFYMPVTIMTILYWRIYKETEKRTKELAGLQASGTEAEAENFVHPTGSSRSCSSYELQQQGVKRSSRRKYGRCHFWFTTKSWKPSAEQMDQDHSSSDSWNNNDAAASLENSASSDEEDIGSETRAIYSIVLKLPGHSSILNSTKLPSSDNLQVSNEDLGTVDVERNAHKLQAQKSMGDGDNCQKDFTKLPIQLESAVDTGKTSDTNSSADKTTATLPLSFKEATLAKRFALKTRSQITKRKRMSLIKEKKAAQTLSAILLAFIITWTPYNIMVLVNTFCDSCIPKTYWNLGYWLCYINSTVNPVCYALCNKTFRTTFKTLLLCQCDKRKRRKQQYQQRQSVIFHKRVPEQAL

Sequence of M2 muscarinic receptor (P10980 whole entry): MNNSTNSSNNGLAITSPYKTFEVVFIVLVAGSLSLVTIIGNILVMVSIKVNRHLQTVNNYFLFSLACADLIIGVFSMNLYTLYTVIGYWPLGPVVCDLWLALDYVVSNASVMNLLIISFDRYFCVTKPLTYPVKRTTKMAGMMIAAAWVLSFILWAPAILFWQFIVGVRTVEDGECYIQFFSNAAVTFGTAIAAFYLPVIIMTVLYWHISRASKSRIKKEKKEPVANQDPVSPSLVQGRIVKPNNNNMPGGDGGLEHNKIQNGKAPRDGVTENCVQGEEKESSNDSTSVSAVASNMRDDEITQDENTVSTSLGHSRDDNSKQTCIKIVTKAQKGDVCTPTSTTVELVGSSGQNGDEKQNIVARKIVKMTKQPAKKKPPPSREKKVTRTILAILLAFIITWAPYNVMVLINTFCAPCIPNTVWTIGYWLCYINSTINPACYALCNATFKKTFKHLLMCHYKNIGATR

For “(3S)-1-[(phenylacetyl)pyrrolidin-3-yl]cyclopentyl(hydroxy)phenyl acetate [Compound No. 11]”, the “Receptor Binding Assay M2 PKi” value [1] was <6 and the “Receptor Binding Assay M3 pki” value [2] was <6.
